# PubChem BioAssay AID330 (DTP/NCI, 2004)
# Several values for one entry are separate records, joined by “and”; a condition that tells them apart may be missing. Identical values can stand only once. Inconclusive results and toxic doses are left out.
# System: P388 leukemia ip, CD2F1 mice, survival T/C
# Assay: NCI In Vivo Anticancer Drug Screen. Data for tumor model P388 Leukemia (intraperitoneal) in CD2F1 (CDF1) mice
# Settings: endpoint: median survival time, higher = longer survival
# How it was run: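 Mice carrying the transplanted tumor received test compound or vehicle. Survival was recorded in each group, and the value is the treated-group measurement divided by that of the vehicle-treated control group.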
# [1] = dose: 50.0 mg/kg/injection, schedule: Q01DX005 (ip), vehicle: Klucel (hydroxypropylcellulose) (HPC)
# [2] = dose: 100.0 mg/kg/injection, schedule: Q01DX005 (ip), vehicle: Klucel (hydroxypropylcellulose) (HPC)
# [3] = dose: 200.0 mg/kg/injection, schedule: Q01DX005 (ip), vehicle: Klucel (hydroxypropylcellulose) (HPC)
# [4] = dose: 100.0 mg/kg/injection, schedule: Q01DX001 (ip), vehicle: saline with Tween-80
# [5] = dose: 200.0 mg/kg/injection, schedule: Q01DX001 (ip), vehicle: saline with Tween-80
# [6] = dose: 100.0 mg/kg/injection, schedule: Q01DX001 (ip), vehicle: Klucel (hydroxypropylcellulose) (HPC)
# [7] = dose: 200.0 mg/kg/injection, schedule: Q01DX001 (ip), vehicle: Klucel (hydroxypropylcellulose) (HPC)
# [8] = dose: 400.0 mg/kg/injection, schedule: Q01DX001 (ip), vehicle: Klucel (hydroxypropylcellulose) (HPC)
# [9] = dose: 100.0 mg/kg/injection, schedule: Q04DX003 (ip), vehicle: saline with Tween-80
# [10] = dose: 200.0 mg/kg/injection, schedule: Q04DX003 (ip), vehicle: saline with Tween-80
# [11] = dose: 400.0 mg/kg/injection, schedule: Q04DX003 (ip), vehicle: saline with Tween-80
# [12] = dose: 100.0 mg/kg/injection, schedule: Q01DX009 (ip), vehicle: Klucel (hydroxypropylcellulose) (HPC)
# [13] = dose: 50.0 mg/kg/injection, schedule: Q01DX005 (ip), vehicle: saline with Tween-80
# [14] = dose: 100.0 mg/kg/injection, schedule: Q01DX005 (ip), vehicle: saline with Tween-80
# [15] = dose: 200.0 mg/kg/injection, schedule: Q01DX005 (ip), vehicle: saline with Tween-80
structure (smiles),measurement,setting,value
CNC(=O)NC1NC(=O)N(C)C1=O (configuration not stated),T/C,"dose: 50.0 mg/kg/injection, schedule: Q01DX009 (ip), vehicle: saline with Tween-80",100 % of control
same,T/C,"dose: 100.0 mg/kg/injection, schedule: Q01DX009 (ip), vehicle: saline with Tween-80",99 % of control
same,T/C,"dose: 200.0 mg/kg/injection, schedule: Q01DX009 (ip), vehicle: saline with Tween-80",100 % of control
Cc1ccc(C2C=CC(C#N)=CN2Cc2ccccc2)cc1 (configuration not stated),T/C,[1],99 % of control
same,T/C,[2],104 % of control
same,T/C,[3],101 % of control
Cc1ccc(S(=O)(=O)N(CCCc2c(C)nc(N)[nH]c2=O)Cc2ccc([N+](=O)[O-])cc2)cc1,T/C,"dose: 60.0 mg/kg/injection, schedule: Q01DX005 (ip), vehicle: Klucel (hydroxypropylcellulose) (HPC)",88 % of control
same,T/C,"dose: 120.0 mg/kg/injection, schedule: Q01DX005 (ip), vehicle: Klucel (hydroxypropylcellulose) (HPC)",86 % of control
same,T/C,"dose: 240.0 mg/kg/injection, schedule: Q01DX005 (ip), vehicle: Klucel (hydroxypropylcellulose) (HPC)",87 % of control
CCCCC1SC2=NCCN2C1(O)c1ccc(Cl)cc1 (configuration not stated),T/C,[1],113 % of control
same,T/C,[2],109 % of control
Cc1c2c(nc3ccccc13)-c1ccccc1C(C)(C)C2O (configuration not stated),T/C,[4],99 % of control
same,T/C,[5],106 % of control
same,T/C,"dose: 400.0 mg/kg/injection, schedule: Q01DX001 (ip), vehicle: saline with Tween-80",106 % of control
Cc1cc2c(c(O)c1O)/C(=C/N=NC(N)=S)C(Cl)=N2,T/C,[6],101 % of control
same,T/C,[7],102 % of control
same,T/C,[8],100 % of control
CNc1cccc2c1C(=O)c1ccccc1C2=O,T/C,"dose: 50.0 mg/kg/injection, schedule: Q04DX003 (ip), vehicle: saline with Tween-80",93 % of control
same,T/C,[9],91 % of control
same,T/C,[10],97 % of control
same,T/C,[11],90 % of control
COc1cc2c(c(OC)c1OC)-c1cc3c(cc1C(OC1OC4COC(C)OC4C(O)C1O)C1COC(=O)C1C2)OCO3 (configuration not stated),T/C,"dose: 17.5 mg/kg/injection, schedule: Q01DX005 (ip), vehicle: Klucel (hydroxypropylcellulose) (HPC)",103 % of control
same,T/C,"dose: 35.0 mg/kg/injection, schedule: Q01DX005 (ip), vehicle: Klucel (hydroxypropylcellulose) (HPC)",101 % of control
same,T/C,"dose: 70.0 mg/kg/injection, schedule: Q01DX005 (ip), vehicle: Klucel (hydroxypropylcellulose) (HPC)",119 % of control
same,T/C,"dose: 140.0 mg/kg/injection, schedule: Q01DX005 (ip), vehicle: Klucel (hydroxypropylcellulose) (HPC)",119 % of control
O=[N+]([O-])c1ccc(/C(=C/c2ccc(Cl)cc2Cl)S(=O)(=O)C(Cl)Cl)o1,T/C,"dose: 50.0 mg/kg/injection, schedule: Q01DX009 (ip), vehicle: suspension in saline",86 % of control
same,T/C,"dose: 100.0 mg/kg/injection, schedule: Q01DX009 (ip), vehicle: suspension in saline",96 % of control
same,T/C,"dose: 200.0 mg/kg/injection, schedule: Q01DX009 (ip), vehicle: suspension in saline",103 % of control
CCCCCCCN(CCCCCCC)CC(O)c1c(Br)c2cc(Br)ccc2c2ccc(Br)cc12 (configuration not stated),T/C,"dose: 1.25 mg/kg/injection, schedule: Q01DX009 (ip), vehicle: saline with Tween-80",105 % of control
same,T/C,"dose: 2.5 mg/kg/injection, schedule: Q01DX009 (ip), vehicle: saline with Tween-80",106 % of control
same,T/C,"dose: 5.0 mg/kg/injection, schedule: Q01DX009 (ip), vehicle: saline with Tween-80",100 % of control
CCCCOC(=O)C(C)OC(=O)Nc1cccc(Cl)c1 (configuration not stated),T/C,[9],90 % of control
same,T/C,[10],90 % of control
same,T/C,[11],100 % of control
COc1ccccc1NC(=S)N/N=C\c1nc2ccccc2c2ccccc12,T/C,"dose: 75.0 mg/kg/injection, schedule: Q04DX002 (ip), vehicle: Klucel (hydroxypropylcellulose) (HPC)",99 % of control
same,T/C,"dose: 150.0 mg/kg/injection, schedule: Q04DX002 (ip), vehicle: Klucel (hydroxypropylcellulose) (HPC)",96 % of control
same,T/C,"dose: 300.0 mg/kg/injection, schedule: Q04DX002 (ip), vehicle: Klucel (hydroxypropylcellulose) (HPC)",96 % of control
CCCN(CCC)C(=O)[S-].CCCN(CCC)C(=O)[S-].[Ni+2],T/C,"dose: 12.5 mg/kg/injection, schedule: Q01DX009 (ip), vehicle: saline with Tween-80",90 % of control
same,T/C,"dose: 25.0 mg/kg/injection, schedule: Q01DX009 (ip), vehicle: saline with Tween-80",109 % of control
C=CC#CC#Cc1ccc(C#CC)s1,T/C,"dose: 12.5 mg/kg/injection, schedule: Q01DX009 (ip), vehicle: Klucel (hydroxypropylcellulose) (HPC)",96 % of control
same,T/C,"dose: 25.0 mg/kg/injection, schedule: Q01DX009 (ip), vehicle: Klucel (hydroxypropylcellulose) (HPC)",100 % of control
same,T/C,"dose: 50.0 mg/kg/injection, schedule: Q01DX009 (ip), vehicle: Klucel (hydroxypropylcellulose) (HPC)",105 % of control
same,T/C,[12],104 % of control
COc1cccc2c1C(=O)c1c(OC)c(C=O)cc(OC)c1C2=O,T/C,"dose: 50.0 mg/kg/injection, schedule: Q01DX009 (ip), vehicle: water",99 % of control
same,T/C,"dose: 100.0 mg/kg/injection, schedule: Q01DX009 (ip), vehicle: water",100 % of control
same,T/C,"dose: 200.0 mg/kg/injection, schedule: Q01DX009 (ip), vehicle: water",98 % of control
C=CCNC(=S)Nc1ncn[nH]1,T/C,[1],95 % of control
same,T/C,[2],104 % of control
COCN(Cc1ccccc1)C[Si](C)(C)C,T/C,[4],106 % of control
same,T/C,[5],99 % of control
CC1CCC(OC(=O)NCCCl)CC1 (configuration not stated),T/C,[1],97 % of control
same,T/C,[2],96 % of control
same,T/C,[3],101 % of control
COc1ccc(C(=O)Cc2cc3c(cc2Br)OCO3)cc1OC,T/C,[6],101 % of control
same,T/C,[7],105 % of control
same,T/C,[8],99 % of control
COC(OC)C(C)(C)NC1CCCCC1,T/C,"dose: 50.0 mg/kg/injection, schedule: Q01DX009 (ip), vehicle: saline",105 % of control
same,T/C,"dose: 100.0 mg/kg/injection, schedule: Q01DX009 (ip), vehicle: saline",104 % of control
Cc1[nH]n(-c2cc(S(=O)(=O)O)ccc2Cl)c(=O)c1N=Nc1c(NC(=O)c2ccc(N)cc2)ccc2cc(S(=O)(=O)O)ccc12,T/C,[1],96 % of control
same,T/C,[2],105 % of control
same,T/C,[3],115 % of control
ON(C(=S)c1ccccc1)c1ccccc1,T/C,[13],105 % of control
same,T/C,[14],102 % of control
same,T/C,[15],102 % of control
O=S(=O)(CCl)OCCF,T/C,"dose: 1.56 mg/kg/injection, schedule: Q01DX009 (ip), vehicle: saline with Tween-80",110 % of control
same,T/C,"dose: 3.12 mg/kg/injection, schedule: Q01DX009 (ip), vehicle: saline with Tween-80",102 % of control
same,T/C,"dose: 6.25 mg/kg/injection, schedule: Q01DX009 (ip), vehicle: saline with Tween-80",105 % of control and 117 % of control
CN1CCC(CC2CCCCN2)CC1 (configuration not stated),T/C,"dose: 6.25 mg/kg/injection, schedule: Q01DX009 (ip), vehicle: distilled water + Tween-80",99 % of control
same,T/C,"dose: 12.5 mg/kg/injection, schedule: Q01DX009 (ip), vehicle: distilled water + Tween-80",105 % of control and 95 % of control
same,T/C,"dose: 25.0 mg/kg/injection, schedule: Q01DX009 (ip), vehicle: distilled water + Tween-80",98 % of control and 122 % of control
same,T/C,"dose: 50.0 mg/kg/injection, schedule: Q01DX009 (ip), vehicle: distilled water + Tween-80",108 % of control and 116 % of control
same,T/C,"dose: 100.0 mg/kg/injection, schedule: Q01DX009 (ip), vehicle: distilled water + Tween-80",103 % of control
C/C=C/C(=O)Oc1ccccc1/C=C/C(=O)CCCCCC,T/C,[13],92 % of control
same,T/C,[14],98 % of control
same,T/C,[15],100 % of control
CCOC(=O)c1ccc(NC(C)=O)cc1,T/C,[12],100 % of control
same,T/C,"dose: 200.0 mg/kg/injection, schedule: Q01DX009 (ip), vehicle: Klucel (hydroxypropylcellulose) (HPC)",107 % of control
same,T/C,"dose: 400.0 mg/kg/injection, schedule: Q01DX009 (ip), vehicle: Klucel (hydroxypropylcellulose) (HPC)",112 % of control
COc1c(Br)c2c(c(OC)c1OC)-c1ccc(OC)c(=O)cc1C(NC(C)=O)CC2 (configuration not stated),T/C,"dose: 1.56 mg/kg/injection, schedule: Q01DX009 (ip), vehicle: Klucel (hydroxypropylcellulose) (HPC)",165 % of control
same,T/C,"dose: 3.12 mg/kg/injection, schedule: Q01DX009 (ip), vehicle: Klucel (hydroxypropylcellulose) (HPC)",101 % of control and 96 % of control
